Among the data in patent publication US20100093721A1, “PHENYL AND HETEROARYL SUBSTITUTED THIENO[2,3-d]PYRIMIDINES AND THEIR USE AS ADENOSINE A2a RECEPTOR ANTAGONISTS” (priority 2008, published 2010) are Ki values, retold here.

The target in assay [1] is T1, human adenosine A1 receptor (Homo sapiens, UniProt P30542).
T1 construct: expressed in transfected cells; host or cells: CHO-K1
T1 sequence (P30542 1-326): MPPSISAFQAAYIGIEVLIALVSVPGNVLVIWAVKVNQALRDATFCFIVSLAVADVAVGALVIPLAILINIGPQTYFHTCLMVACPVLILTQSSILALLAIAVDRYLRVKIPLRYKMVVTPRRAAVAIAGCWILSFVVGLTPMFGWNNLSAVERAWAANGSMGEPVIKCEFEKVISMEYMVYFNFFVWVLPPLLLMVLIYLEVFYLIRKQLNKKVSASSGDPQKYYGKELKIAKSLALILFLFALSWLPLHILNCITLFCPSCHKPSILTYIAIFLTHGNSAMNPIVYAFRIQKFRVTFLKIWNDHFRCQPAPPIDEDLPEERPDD
As to the kind of experiment: Adenosine A1 Receptor Functional Assay (A1GAL2). The conditions noted are these: CHO-K1 cells, cAMP inducible beta-galactosidase reporter, 4 nM r-PIA/1 uM Forskolin challenge. In kind it is cell-based. Here is the method:
Adenosine A1 Receptor Functional Assay (A1GAL2)
(§1) To initiate the functional assay, cryopreserved CHO-K1 cells overexpressing the human adenosine A1 receptor and containing a cAMP inducible beta-galactosidase reporter gene were thawed, centrifuged, DMSO containing media removed, and then seeded with fresh culture media into clear 384-well tissue culture treated plates (BD #353961) at a concentration of 10K cells/well. Prior to assay, these plates were cultured for two days at 37° C., 5% CO2, 90% Rh. On the day of the functional assay, culture media was removed and replaced with 45 uL assay medium (Hams/F-12 Modified (Mediatech #10-080CV) supplemented w/0.1% BSA). Test compounds were diluted and 11 point curves created at a 1000× concentration in 100% DMSO. Immediately after addition of assay media to the cell plates, 50 nL of the appropriate test compound antagonist or agonist control curves were added to cell plates using a Cartesian Hummingbird. Compound curves were allowed to incubate at room temperature on cell plates for approximately 15 minutes before addition of a 4 nM r-PIA (Sigma P4532)/1 uM Forskolin (Sigma F3917) agonist challenge (5 uL volume). A control curve of r-PIA in 1 uM Forskolin, a DMSO/Media control, and a single dose of Forskolin were also included on each plate. After additions, cell plates were allowed to incubate at 37° C., 5% CO2, 90% Rh for 5.5-6 hours. After incubation, media was removed, and cell plates were washed 1×50 uL with DPBS w/o Ca & Mg (Mediatech 21-031-CV). Into dry wells, 20 uL of 1× Reporter Lysis Buffer (Promega E3971 (diluted in dH2O from 5× stock)) was added to each well and plates frozen at −20° C. overnight. For β-galactosidase enzyme calorimetric assay, plates were thawed out at room temperature and 20 μL 2× assay buffer (Promega) was added to each well. Color was allowed to develop at 37° C., 5% CO2, 90% Rh for 1-1.5 h or until reasonable signal appeared. The calorimetric reaction was stopped with the addition of 60 μL/well 1M sodium carbonate. Plates were counted at 405 nm on a SpectraMax Microplate Reader (Molecular Devices). Data was analyzed in Microsoft Excel and IC/EC50 curves were fit using a standardized macro.

The target in assay [2] is T2, human adenosine A2a receptor (Homo sapiens, UniProt P29274).
T2 construct: expressed in transfected cells; host or cells: CHO-K1
In words: Adenosine A2a Receptor Functional Assay (A2AGAL2). In kind it is cell-based. The conditions noted are these: CHO-K1 cells, cAMP inducible beta-galactosidase reporter, 15 nM NECA agonist challenge. Here is the method: Adenosine A2a Receptor Functional Assay (A2AGAL2)
as §1, with “Prior” for “To initiate the functional assay, cryopreserved CHO-K1 cells overexpressing the human adenosine A1 receptor and containing a cAMP inducible beta-galactosidase reporter gene were thawed, centrifuged, DMSO containing media removed, and then seeded with fresh culture media into clear 384-well tissue culture treated plates (BD #353961) at a concentration of 10K cells/well. Prior”, “Compound curves were allowed to incubate at room temperature on cell plates for approximately 15 minutes before addition of a 4 nM r-PIA (Sigma P4532)/1 uM Forskolin (Sigma F3917) agonist challenge (5 uL volume).” left out, “NECA,” for “r-PIA in 1 uM Forskolin,”, “Forskolin (Sigma F3917)” for “Forskolin”, “colorimetric” for “calorimetric”

Assay [3] has as its target T3, human A2a adenosine receptor (Homo sapiens, UniProt P29274).
T3 construct: purchased PerkinElmer RB-HA2a; host or cells: HEK293 plasma membranes
As to the kind of experiment: Ligand Binding Assay for Adenosine A2a Receptor. As to conditions: HEK293 plasma membrane, radioligand [3H]CGS21680; read-out: A2A-B Ki. Here is the method: Ligand Binding Assay for Adenosine A2a Receptor
Ligand binding assay of adenosine A2a receptor was performed using plasma membrane of HEK293 cells containing human A2a adenosine receptor (PerkinElmer, RB-HA2a) and radioligand [^3H]CGS21680 (PerkinElmer, NET1021). Assay was set up in 96-well polypropylene plate in total volume of 200 μL by sequentially adding 20 μL 1:20 diluted membrane, 130 μL assay buffer (50 mM Tris.HCl, pH7.4 10 mM MgCl2, 1 mM EDTA) containing [^3H] CGS21680, 50 μL diluted compound (4×) or vehicle control in assay buffer. Nonspecific binding was determined by […] NECA. Reaction was carried out at room temperature for 2 hours before filtering through 96-well GF/C filter plate pre-soaked in 50 mM Tris.HCl, pH7.4 containing 0.3% polyethylenimine. Plates were then washed 5 times with cold 50 mM Tris.HCl, pH7.4, dried and sealed at the bottom. Microscintillation fluid 30 μL was added to each well and the top sealed. Plates were counted on Packard Topcount for [^3H]. Data was analyzed in Microsoft Excel and GraphPad Prism programs. (Varani, K.; Gessi, S.; Dalpiaz, A.; Borea, P. A. British Journal of Pharmacology, 1996, 117, 1693)

Counter-ions that a name gives are not always drawn.

As usually defined, the Ki is a measure of affinity in units of concentration, obtained from inhibition or displacement.

T3 sequence (P29274 whole entry): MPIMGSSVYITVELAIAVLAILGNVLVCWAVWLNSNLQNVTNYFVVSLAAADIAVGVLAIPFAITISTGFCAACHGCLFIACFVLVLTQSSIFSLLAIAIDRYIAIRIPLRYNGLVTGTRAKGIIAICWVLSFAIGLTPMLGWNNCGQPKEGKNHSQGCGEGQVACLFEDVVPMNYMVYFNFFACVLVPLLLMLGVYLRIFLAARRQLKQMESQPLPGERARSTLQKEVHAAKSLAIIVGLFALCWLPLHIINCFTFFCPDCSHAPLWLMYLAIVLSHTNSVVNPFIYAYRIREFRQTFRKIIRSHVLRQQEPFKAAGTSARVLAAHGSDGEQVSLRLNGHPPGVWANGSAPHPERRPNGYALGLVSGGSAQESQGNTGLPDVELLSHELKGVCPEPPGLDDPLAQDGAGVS
T2 sequence (P29274 whole entry): as above

As for `Nc1nc(-c2cnccn2)nc2sc(Cc3ccccc3)cc12` [Example 32, 6-Benzyl-2-pyrazin-2-yl-thieno[2,3-d]pyrimidin-4-ylamine], the Ki in assay [1] was 90.9 nM; in assay [2], 2.42 nM.

For the molecule `COc1ccccc1C(O)c1cc2c(N)nc(-c3ccc(C)o3)nc2s1` (centres unmarked) [Example 11, [4-Amino-2-(5-methyl-furan-2-yl)-thieno[2,3-d]pyrimidin-6-yl]-(2-methoxy-phenyl)-methanol], the Ki in assay [1] came to 10.2 nM; in assay [2], 1.98 nM; in assay [3], 6.72 nM.

For the molecule `Nc1nc(-c2cnco2)nc2sc(Cc3ccccc3)cc12` [Example 19, 6-Benzyl-2-oxazol-5-yl-thieno[2,3-d]pyrimidin-4-ylamine], the Ki in assay [1] amounted to 100 nM; in assay [2], 2.48 nM.

For the molecule `Cc1csc(-c2nc(N)c3cc(C4(c5ccccc5)CC4)sc3n2)n1` [Example 10, 2-(4-Methyl-thiazol-2-yl)-6-(1-phenyl-cyclopropyl)-thieno[2,3-d]pyrimidin-4-ylamine], the Ki is above 610 nM in assay [1] and 107 nM in assay [2].

Consider `Cc1csc(-c2nc(N)c3cc(Cc4ccccc4)sc3n2)n1` [Example 14, 6-Benzyl-2-(4-methyl-thiazol-2-yl)-thieno[2,3-d]pyrimidin-4-ylamine], for which the values for the Ki in assay [1], in assay [2] and in assay [3] were 1490 nM, 16.1 nM and 46.3 nM, respectively.

For `Nc1nc(-c2cccnc2)nc2sc(Cc3ccccc3)cc12` [Example 13, 6-Benzyl-2-pyridin-3-yl-thieno[2,3-d]pyrimidin-4-ylamine], the Ki in assay [1] was 1420 nM; in assay [2], 215 nM; in assay [3] it was 192 nM.

Turning to `COc1ccccc1C(O)c1cc2c(N)nc(-c3ccc(C(F)F)o3)nc2s1` (centres unmarked) [Example 45, [4-Amino-2-(5-difluoromethyl-furan-2-yl)-thieno[2,3-d]pyrimidin-6-yl]-(2-methoxy-phenyl)-methanol], the figures for the Ki in assay [1] and in assay [2] were 34.4 nM and 4.37 nM, respectively.

`Cc1ccc(-c2nc(N)c3cc(C(=O)c4ccccc4CN4CCOCC4)sc3n2)o1` [Example 7, [4-Amino-2-(5-methyl-furan-2-yl)-thieno[2,3-d]pyrimidin-6-yl]-(2-morpholin-4-ylmethyl-phenyl)-methanone]: in assay [3], the Ki was determined as 328 nM.

As for `Cc1ccc(-c2nc(N)c3cc(C(C)c4ccccc4)sc3n2)o1` (racemic) [Example 16, (±)-2-(5-Methyl-furan-2-yl)-6-(1-phenyl-ethyl)-thieno[2,3-d]pyrimidin-4-ylamine], the Ki worked out at 910 nM in assay [1] and 47.8 nM in assay [2].

For the molecule `Nc1nc(-c2ncccn2)nc2sc(Cc3ccccc3)cc12` [Example 25, 6-Benzyl-2-pyrimidin-2-yl-thieno[2,3-d]pyrimidin-4-ylamine hydrochloride], the Ki in assay [1] stood at 618 nM; in assay [2], 17.5 nM.

With `Cc1csc(-c2nc(N)c3cc(C(C)c4ccccc4)sc3n2)n1` (racemic) [Example 17, (±)-2-(4-Methyl-thiazol-2-yl)-6-(1-phenyl-ethyl)-thieno[2,3-d]pyrimidin-4-ylamine], the Ki was 1420 nM in assay [1] and 100 nM in assay [2].

`N#Cc1cccc(-c2nc(N)c3cc(Cc4ccccc4)sc3n2)n1` [Example 24, 6-(4-Amino-6-benzyl-thieno[2,3-d]pyrimidin-2-yl)-pyridine-2-carbonitrile]: the Ki in assay [1] was above 1040 nM; in assay [2], 26.4 nM.

For the molecule `N#Cc1ccc(-c2nc(N)c3cc(Cc4ccccc4)sc3n2)o1` [Example 18, 5-(4-Amino-6-benzyl-thieno[2,3-d]pyrimidin-2-yl)-furan-2-carbonitrile], the Ki in assay [1] amounted to 3160 nM; in assay [2] it was 304 nM.

As to `Cc1ccc(-c2nc(N)c3cc(C(O)c4ccccc4)sc3n2)o1` (centres unmarked) [Example 2, [4-Amino-2-(5-methyl-furan-2-yl)-thieno[2,3-d]pyrimidin-6-yl]-phenyl-methanol], the values for the Ki in assay [1] and in assay [2] were 20.8 nM and 2.28 nM, respectively.

With `Cc1nc(-c2nc(N)c3cc(Cc4ccccc4)sc3n2)cs1` [Example 28, 6-Benzyl-2-(2-methyl-thiazol-4-yl)-thieno[2,3-d]pyrimidin-4-ylamine], the results for the Ki in assay [1] and in assay [2] were 263 nM and 57.2 nM, respectively.

Turning to `Nc1nc(-c2ccc(C3CC3)o2)nc2sc(Cc3ccccc3)cc12` [Example 23, 6-Benzyl-2-(5-cyclopropyl-furan-2-yl)-thieno[2,3-d]pyrimidin-4-ylamine], the Ki in assay [1] turned out to be 861 nM; in assay [2], 263 nM.

As for `Cn1cnc(-c2nc(N)c3cc(Cc4ccccc4)sc3n2)c1` [Example 20, 6-Benzyl-2-(1-methyl-1H-imidazol-4-yl)-thieno[2,3-d]pyrimidin-4-ylamine], the Ki is 2330 nM in assay [1] and 539 nM in assay [2].

As to `COc1ccccc1Cc1cc2c(N)nc(-c3ccc(C(F)F)o3)nc2s1` [Example 39, 2-(5-Difluoromethyl-furan-2-yl)-6-(2-methoxy-benzyl)-thieno[2,3-d]pyrimidin-4-ylamine], the values for the Ki in assay [1] and in assay [2] were 516 nM and 13 nM, respectively.

As to `CCc1ccc(-c2nc(N)c3cc(Cc4ccccc4)sc3n2)o1` [Example 8, 6-Benzyl-2-(5-ethyl-furan-2-yl)-thieno[2,3-d]pyrimidin-4-ylamine], the inhibition constant (Ki) was 223 nM in assay [1] and 48.8 nM in assay [2].

Consider `COc1ccccc1Cc1cc2c(N)nc(-c3nc(C)cs3)nc2s1` [Example 15, 6-(2-Methoxy-benzyl)-2-(4-methyl-thiazol-2-yl)-thieno[2,3-d]pyrimidin-4-ylamine], for which the Ki stood at 186 nM in assay [1] and 13.2 nM in assay [2].

For `C=C(c1ccccc1)c1cc2c(N)nc(-c3nc(C)cs3)nc2s1` [Example 9, 2-(4-Methyl-thiazol-2-yl)-6-(1-phenyl-vinyl)-thieno[2,3-d]pyrimidin-4-ylamine], the figures for the Ki in assay [1] and in assay [2] were above 594 nM and 31 nM, respectively.
